Data: patent publication US20220040086A1, “FORMULATION AND AEROSOL CANISTERS, INHALERS, AND THE LIKE CONTAINING THE FORMULATION” (KINDEVA DRUG DELIVERY L.P., priority 2018, published 2022)

Experiments:
[1] = 30 mg in 30 mL 2H,3H-decafluoropentane, sonic probe 1 minute
Method: 30 mg of the resulting anhydrous ipratropium bromide was added to a glass sample jar followed by 30 mL of 2H,3H-decafluoropentane.

[2] = 50 mg in 2 g Malvern dispersant (lecithin in isooctane), sonicated 3 minutes
[3] = Rehydration of anhydrous ipratropium bromide (sample weight over time); assay type: physicochemical
Method: The weight of the powder after heating was 9.563 g. The sample was weighed every 10 minutes for 90 minutes and then left over the weekend at 24° C. and 30% humidity.
The sample was then placed in a desiccator for 24 hours and weighed again.

[4] = general statement
Excerpt: The two formulations were examined by microscope after 2 and 4 weeks storage at ambient temperature and humidity. Each vial was sprayed onto a microscope slide via a standard 3M MK6 actuator.

[5] = Differential scanning calorimetry thermogram; assay type: physicochemical; conditions: DSC thermogram
Excerpt: Ipratropium, in particular ipratropium bromide, is commercially available as a hydrate, and more particularly as the monohydrate. Dehydration of hydrated ipratropium, in particular ipratropium bromide monohydrate, can be achieved by any suitable method. […] A particularly suitable method is heating the particulate ipratropium, in particular ipratropium bromide monohydrate, in a drying oven for a period of time. The drying oven can be heated to a temperature high enough to remove the water. […] Useful oven temperatures at ambient pressure include at least 100° C., at least 110° C., at least 120° C., at least 125° C., no greater than 240° C., no greater than 230° C., no greater than 225° C., between 100° C. and 240° C., between 110° C. and 230° C., between 120° C. and 220° C., between 125° C. and 215° C., or more particularly about 125° C. The use of pressures less than ambient pressure, such as in a vacuum oven, can be useful in reducing the temperature for dehydration. The time necessary to dehydrate the particulate ipratropium, in particular ipratropium bromide monohydrate, is the amount of time it takes to remove the desired amount of water from the particulate ipratropium. If the amount of water in a sample of particulate ipratropium is known, complete dehydration is complete when the mass of the remaining ipratropium is essentially anhydrous ipratropium. […]

CC(C)[N+]1(C)[C@@H]2CC[C@H]1CC(OC(=O)C(CO)c1ccccc1)C2.[Br-] (stereo partly shown) [anhydrous ipratropium bromide]
agglomeration observed with magnifying glass (x10) [1]: significant agglomeration | agglomerates under a microscope [2]: essentially free of agglomerates | dispersion appearance [2]: dispersed satisfactorily | Sample weight ([3]; 10 mins): 9.597 g | Sample weight ([3]; 20 mins): 9.600 g | Sample weight ([3]; 30 mins): 9.601 g | Sample weight ([3]; 40 mins): 9.602 g | Sample weight ([3]; 50 mins): 9.603 g | Sample weight ([3]; 60 mins): 9.603 g | Sample weight ([3]; 70 mins): 9.602 g | Sample weight ([3]; 80 mins): 9.602 g | Sample weight ([3]; 90 mins): 9.603 g | Sample weight ([3]; 2.5 days at 24° C. and 30% humidity): 9.606 g | weight decrease relative to unmicronized ipratropium bromide monohydrate starting material ([3]; after 2.5 days at 24° C. and 30% humidity (9.606 g)): 3.94% | Sample weight ([3]; after a further 24 hours in a desiccator): 9.568 g | weight loss relative to unmicronized ipratropium bromide monohydrate starting material ([3]; after a further 24 hours in a desiccator (9.568 g)): 4.14%

CC(C)[N+]1(C)[C@@H]2CC[C@H]1CC(OC(=O)C(CO)c1ccccc1)C2.[Br-] (stereo partly shown) [anhydrous micronized ipratropium bromide]
stability when formulated in a HFA propellant [4]: stable

CC(C)[N+]1(C)[C@@H]2CC[C@H]1C[C@@H](OC(=O)C(CO)c1ccccc1)C2.O.[Br-] (stereo partly shown) [ipratropium bromide monohydrate]
degradation temperature [5]: approximately 240 °C | water loss starting temperature [5]: approximately 100 °C

CC(C)[N+]1(C)[C@@H]2CC[C@H]1C[C@@H](OC(=O)C(CO)c1ccccc1)C2.O.[Br-] (stereo partly shown) [micronized ipratropium bromide monohydrate]
agglomeration observed with magnifying glass (x10) [1]: not | agglomerates under a microscope [2]: essentially free of agglomerates | dispersion appearance [2]: dispersed satisfactorily
